Experimental data as given in ChEMBL document CHEMBL1159162, “Conformationally constrained analogues of diacylglycerol (DAG). 3. Interaction of -alkyl--lactones with protein kinase C (PK-C)” (Bioorg Med Chem Lett, 1993).

Molecular target: not listed separately
Assay: (§1) Inhibition of [20-3H]phorbol-12,13-dibutyrate (PDBU) binding to protein kinase-C (PKC alpha, beta and gamma) from mouse brain

| SMILES | Ki |
| --- | --- |
| CCCCCCCCCCCCCC(=O)O[C@@H]1CC(=O)O[C@H]1CO | 2500 nM |
| CCCCCCCCCCCCCC(=O)O[C@H]1[C@H](CO)OC(=O)[C@@H]1CCCCCCCCCCCC | 2900 nM |
| CCCCCCCCCCCC[C@H]1C(=O)O[C@@H](CO)[C@@H]1OC(C)=O | 1100 nM |
| CCCCCCCCCCCCCC[C@H]1C(=O)O[C@@H](CO)[C@@H]1OC(C)=O | 600 nM |
| CCCCCCCCCCCCCC(=O)O[C@H]1CC(=O)O[C@@H]1CO | 5300 nM |
| CCCCCCCCCCCCCC(=O)OC[C@H](CO)OC(C)=O | 500 nM |

Species on record: Mus musculus
Assay: as §1

| SMILES | ED50 |
| --- | --- |
| CCCCCCCCCCCCC1C(=O)O[C@H](CO)[C@H]1OC(C)=O (stereo partly drawn) | > 100000 nM |
| CCCCCCCCCCCCCC(=O)O[C@H]1C(CCCCCCCCCCCC)C(=O)O[C@@H]1CO (stereo partly drawn) | > 200000 nM |
